{"source": "paper PMC8333425", "about": "“Discovery of a dual Ras and ARF6 inhibitor from a GPCR endocytosis screen” (Nature Communications, 2021)", "key": {"H-Ras": {"target": "H-Ras (Homo sapiens, UniProt P01112)", "sequence (P01112 whole entry)": "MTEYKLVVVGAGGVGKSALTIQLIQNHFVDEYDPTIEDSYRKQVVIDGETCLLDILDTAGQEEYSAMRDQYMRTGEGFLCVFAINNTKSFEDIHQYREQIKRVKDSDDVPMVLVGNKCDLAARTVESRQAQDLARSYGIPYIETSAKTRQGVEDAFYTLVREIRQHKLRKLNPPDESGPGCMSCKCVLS", "experiment": "GST-Raf1-RBD pull-down of EGFR-mediated H-Ras activation in MDA-MB-231 cells", "format": "cell-based", "set-up": "endogenous in cells; host or cells: MDA-MB-231", "settings": "50 μM", "experimental": "Activation of ARF1, ARF6, Ras, and Rho were assessed by using GST pull-down assays. HEK293SL cells were transiently transfected with 3 µg AT1R-flag only (Ras and Rho) or along with 500 ng HA-ARF6 (ARF6) or HA-ARF1 (ARF1). Forty-eight hours later, the HEK293 or MDA-MB-231 cells were serum-starved for 4 h with DMEM containing 20 mM HEPES then pretreated with DMSO or Rasarfin (50 µM) for 30 min. Cells were then stimulated with 1 µM AngII or 100 ng/ml EGF for 0 and 2 min. Cells were then washed once with ice-cold PBS and lysed for 30 min at 4 °C in 300 µl of lysis buffer (pH 7.5, 50 mM Tris-HCl, 140 mM NaCl, 5 mM MgCl2, 10% glycerol (v/v), 1% Nonidet P-40 (v/v), 1 mM dithiothreitol) supplemented with protease inhibitors (1 mM phenylmethyl-sulfonyl fluoride (PMSF), 10 µg/ml leupeptin, 5 µg/ml aprotinin, 1 µg/ml pepstatin A) and phosphatase inhibitors (20 mM NaF, 0.025 mM pervanadate). The samples were cleared by centrifugation and 30 µl (cell lysates) was kept for assessing total protein contents. The remaining was transferred to fresh tubes with 20 µg of either GST, GST-GGA3-PBD, GST-Raf1-RBD or GST-Rhotekin-RBD coupled to glutathione resin and rotated for 1–2 h at 4 °C. […] ImageLab 5.2 software was used to quantify the digital blots as fold of the amount of pulled down protein over total protein. […]"}, "β-arrestin2": {"system": "β-arrestin2", "experiment": "Confocal microscopy of β-arrestin2-YFP trafficking with B2R", "format": "cell-based, human", "settings": "50 μM; BK", "experimental": "One day before transfection, cells were seeded in 35-mm glass-bottom dishes (MatTek Corporation) at a density of 1 × 10^5 cells per dish. For the recordings of receptor internalization, HEK293 SL cells were transfected with 2 μg of AT1R-YFP. For the recordings of β-arrestin-2 recruitment to the receptor, HEK293SL cells were transfected with 50 ng of β-arrestin2-YFP and 250 ng of Flag-AT1R or HA-B2R. Forty-eight hours post-transfection, cells were serum starved, preincubated with DMSO (0.1% final concentration) or Rasarfin (50 μM) for 30 min at 37 °C. AT1R-expressing cells were stimulated with angiotensinII (AngII; 100 nM) and B2R-expressing cells were stimulated with bradykinin (BK; 1 μM) for 30 min (receptor-YFP) or 15 min (β-arrestin2-YFP). Cells were imaged with Zeiss LSM-510 and/or LSM-710 laser scanning confocal microscope. To detect YFP, […] and BP 505–550 nm emission filter. Images (2048 × 2048) were collected using a 63x oil immersion lens."}}, "data": [{"smiles": "CC(C)C(=O)N1CCN(c2ccc(NC(=O)c3cc4ccccc4o3)cc2Cl)CC1", "note": "[Compound 21]", "values": [{"measurement": "Ras activity in MDA-MB-231 cells (pull-down)", "setting": "H-Ras", "value": "inhibited"}, {"measurement": "β-arrestin trafficking with B2R into endosomes (microscopy)", "setting": "β-arrestin2", "value": "prevented β-arrestins’ trafficking with receptors into endosomes"}]}]}
